Patent publication US9579314B2 (priority 2015, dated 2017)

Experiments:
Human M3 receptor = Human M3 receptor (Homo sapiens, UniProt P20309); conditions: read-out: M3 binding affinity
Human β2 adrenoceptor = Human β2 adrenoceptor (Homo sapiens, UniProt P07550); conditions: read-out: B2 binding affinity
Chain of Human β2 adrenoceptor (P07550 whole entry): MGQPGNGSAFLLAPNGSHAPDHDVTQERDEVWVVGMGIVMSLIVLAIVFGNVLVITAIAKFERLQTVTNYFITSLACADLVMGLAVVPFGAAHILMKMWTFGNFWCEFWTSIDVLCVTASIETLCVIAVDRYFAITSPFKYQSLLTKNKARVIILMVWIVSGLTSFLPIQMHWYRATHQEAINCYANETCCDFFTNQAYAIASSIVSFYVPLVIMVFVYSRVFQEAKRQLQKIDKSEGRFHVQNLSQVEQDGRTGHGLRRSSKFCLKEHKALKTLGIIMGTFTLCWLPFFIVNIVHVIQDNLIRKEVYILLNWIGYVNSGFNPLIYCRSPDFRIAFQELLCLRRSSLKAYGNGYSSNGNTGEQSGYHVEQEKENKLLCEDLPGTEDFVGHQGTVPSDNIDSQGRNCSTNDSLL

Chain of Human M3 receptor (P20309 whole entry): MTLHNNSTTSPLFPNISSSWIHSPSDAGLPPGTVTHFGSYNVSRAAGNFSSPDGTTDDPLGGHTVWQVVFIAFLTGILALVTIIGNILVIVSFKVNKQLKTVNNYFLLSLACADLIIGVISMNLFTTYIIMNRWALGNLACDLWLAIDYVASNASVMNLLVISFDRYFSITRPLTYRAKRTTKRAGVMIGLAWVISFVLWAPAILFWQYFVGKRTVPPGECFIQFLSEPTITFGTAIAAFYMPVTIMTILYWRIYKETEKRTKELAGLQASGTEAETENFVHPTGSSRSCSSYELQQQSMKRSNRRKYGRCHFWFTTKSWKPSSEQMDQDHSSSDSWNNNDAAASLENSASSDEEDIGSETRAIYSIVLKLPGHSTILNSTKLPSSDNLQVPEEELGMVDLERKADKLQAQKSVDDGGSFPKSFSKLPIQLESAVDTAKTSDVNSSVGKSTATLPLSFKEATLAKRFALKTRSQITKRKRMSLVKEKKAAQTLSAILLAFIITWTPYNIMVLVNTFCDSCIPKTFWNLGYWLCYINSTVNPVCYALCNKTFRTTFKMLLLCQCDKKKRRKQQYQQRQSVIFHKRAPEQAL

Row | Compound | IC50 (Human M3 receptor) [nM] | IC50 (Human β2 adrenoceptor) [nM]
1 | O=C(OCC1CCN(Cc2ccccc2)CC1)[C@@](O)(c1ccccc1)c1cccc(OCCCCCCNCC(O)c2ccc(O)c3[nH]c(=O)ccc23)c1 (stereo in doubt) [Compound 27, (R)-(1-benzylpiperidin-4-yl)methyl 2-hydroxy-2-(3-((6-(((R)-2-hydroxy-2-(8-hydroxy-2-oxo-1,2-dihydroquinolin-5-yl)ethyl)amino)hexyl)oxy)phenyl)-2-phenylacetate] | > 3 | 0.3 to 3
2 | O=C(OCC1CCN(Cc2ccccc2)CC1)[C@](O)(c1ccccc1)c1cccc(OCCCCCCNCC(O)c2ccc(O)c3[nH]c(=O)ccc23)c1 (stereo in doubt) [Compound 29, (S)-(1-benzylpiperidin-4-yl)methyl 2-hydroxy-2-(3-((6-(((R)-2-hydroxy-2-(8-hydroxy-2-oxo-1,2-dihydroquinolin-5-yl)ethyl)amino)hexyl)oxy)phenyl)-2-phenylacetate] | < 0.3 | < 0.3
3 | O=C(OCC1CCN(Cc2ccccc2)CC1)[C@](O)(c1ccccc1)c1cccc(OCCCCCCCCNCC(O)c2ccc(O)c3[nH]c(=O)ccc23)c1 (stereo in doubt) [Compound 30, (S)-(1-benzylpiperidin-4-yl)methyl 2-hydroxy-2-(3-((8-(((R)-2-hydroxy-2-(8-hydroxy-2-oxo-1,2-dihydroquinolin-5-yl)ethyl)amino)octyl)oxy)phenyl)-2-phenylacetate] | 0.3 to 3 | 0.3 to 3
4 | O=C(NCCc1cccc(C(O)(C(=O)OCC2CCN(Cc3ccccc3)CC2)c2ccccc2)c1)c1ccc(CNCC(O)c2ccc(O)c3[nH]c(=O)ccc23)cc1 (stereo in doubt) [Compound 39, (1-benzylpiperidin-4-yl)methyl 2-hydroxy-2-(3-(2-(4-((((R)-2-hydroxy-2-(8-hydroxy-2-oxo-1,2-dihydroquinolin-5-yl)ethyl)amino)methyl)benzamido)ethyl)phenyl)-2-phenylacetate] | 0.3 to 3 | < 0.3
5 | O=C(OCC1CCN(Cc2ccccc2)CC1)C(O)(c1ccccc1)c1cccc(OCCCCCNC[C@H](O)c2ccc(O)c3[nH]c(=O)ccc23)c1 (stereo partly drawn) [Compound 1, (1-Benzylpiperidin-4-yl)methyl 2-hydroxy-2-(3-((5-(((R)-2-hydroxy-2-(8-hydroxy-2-oxo-1,2-dihydroquinolin-5-yl)ethyl)amino)pentyl)oxy)phenyl)-2-phenylacetate] | 0.3 to 3 | < 0.3
6 | Cc1ccc(C(O)(C(=O)OCC2CCN(Cc3ccccc3)CC2)c2cccc(OCCCCCNC[C@H](O)c3ccc(O)c4[nH]c(=O)ccc34)c2)cc1 (stereo partly drawn) [Compound 2, (1-benzylpiperidin-4-yl)methyl 2-hydroxy-2-(3-((5-(((R)-2-hydroxy-2-(8-hydroxy-2-oxo-1,2-dihydroquinolin-5-yl)ethyl)amino)pentyl)oxy)phenyl)-2-(p-tolyl)acetate] | 0.3 to 3 | 0.3 to 3
7 | O=C(OCC1CCN(Cc2ccccc2)CC1)C(O)(c1ccc(F)cc1)c1cccc(OCCCCCNC[C@H](O)c2ccc(O)c3[nH]c(=O)ccc23)c1 (stereo partly drawn) [Compound 3, (1-benzylpiperidin-4-yl)methyl 2-(4-fluorophenyl)-2-hydroxy-2-(3-((5-(((R)-2-hydroxy-2-(8-hydroxy-2-oxo-1,2-dihydroquinolin-5-yl)ethyl)amino)pentyl)oxy)phenyl)acetate] | 0.3 to 3 | < 0.3
8 | O=C(OCC1CCN(Cc2ccccc2)CC1)C(O)(c1cccc(F)c1)c1cccc(OCCCCCNC[C@H](O)c2ccc(O)c3[nH]c(=O)ccc23)c1 (stereo partly drawn) [Compound 4, (1-benzylpiperidin-4-yl)methyl 2-(3-fluorophenyl)-2-hydroxy-2-(3-((5-(((R)-2-hydroxy-2-(8-hydroxy-2-oxo-1,2-dihydroquinolin-5-yl)ethyl)amino)pentyl)oxy)phenyl)acetate] | 0.3 to 3 | < 0.3
9 | Cc1cccc(C(O)(C(=O)OCC2CCN(Cc3ccccc3)CC2)c2cccc(OCCCCCNC[C@H](O)c3ccc(O)c4[nH]c(=O)ccc34)c2)c1 (stereo partly drawn) [Compound 5, (1-benzylpiperidin-4-yl)methyl 2-hydroxy-2-(3-((5-(((R)-2-hydroxy-2-(8-hydroxy-2-oxo-1,2-dihydroquinolin-5-yl)ethyl)amino)pentyl)oxy)phenyl)-2-(m-tolyl)acetate] | 0.3 to 3 | 0.3 to 3
10 | O=C(OCC1CCN(Cc2ccccc2)CC1)C(O)(c1cccc(OCCCCCNC[C@H](O)c2ccc(O)c3[nH]c(=O)ccc23)c1)c1ccccc1Cl (stereo partly drawn) [Compound 6, (1-benzylpiperidin-4-yl)methyl 2-(2-chlorophenyl)-2-hydroxy-2-(3-((5-(((R)-2-hydroxy-2-(8-hydroxy-2-oxo-1,2-dihydroquinolin-5-yl)ethyl)amino)pentyl)oxy)phenyl)acetate] | > 3 | < 0.3
11 | Cc1ccccc1C(O)(C(=O)OCC1CCN(Cc2ccccc2)CC1)c1cccc(OCCCCCNC[C@H](O)c2ccc(O)c3[nH]c(=O)ccc23)c1 (stereo partly drawn) [Compound 7, (1-benzylpiperidin-4-yl)methyl 2-hydroxy-2-(3-((5-(((R)-2-hydroxy-2-(8-hydroxy-2-oxo-1,2-dihydroquinolin-5-yl)ethyl)amino)pentyl)oxy)phenyl)-2-(o-tolyl)acetate] | > 3 | 0.3 to 3
12 | CCc1ccccc1C(O)(C(=O)OCC1CCN(Cc2ccccc2)CC1)c1cccc(OCCCCCNC[C@H](O)c2ccc(O)c3[nH]c(=O)ccc23)c1 (stereo partly drawn) [Compound 8, (1-benzylpiperidin-4-yl)methyl 2-(2-ethylphenyl)-2-hydroxy-2-(3-((5-(((R)-2-hydroxy-2-(8-hydroxy-2-oxo-1,2-dihydroquinolin-5-yl)ethyl)amino)pentyl)oxy)phenyl)acetate] | > 3 | 0.3 to 3
13 | O=C(OCC1CCN(Cc2ccccc2)CC1)C(O)(c1cccc(OCCCCCNC[C@H](O)c2ccc(O)c3[nH]c(=O)ccc23)c1)c1cccs1 (stereo partly drawn) [Compound 9, (1-benzylpiperidin-4-yl)methyl 2-hydroxy-2-(3-((5-(((R)-2-hydroxy-2-(8-hydroxy-2-oxo-1,2-dihydroquinolin-5-yl)ethyl)amino)pentyl)oxy)phenyl)-2-(thiophen-2-yl)acetate] | 0.3 to 3 | < 0.3
14 | O=C(NCCCOc1cccc([C@](O)(C(=O)OC[C@@H]2CCN(Cc3ccccc3)C2)c2ccccc2)c1)c1ccc(CNC[C@H](O)c2ccc(O)c3[nH]c(=O)ccc23)cc1 [Compound 159, ((R)-1-benzylpyrrolidin-3-yl)methyl (S)-2-hydroxy-2-(3-(3-(4-((((R)-2-hydroxy-2-(8-hydroxy-2-oxo-1,2-dihydroquinolin-5-yl)ethyl)amino)methyl)benzamido)propoxy)phenyl)-2-phenylacetate] | – | < 0.3
15 | O=C(NCCCOc1cccc([C@](O)(C(=O)OC[C@H]2CCN(Cc3ccccc3)C2)c2ccccc2)c1)c1ccc(CNC[C@H](O)c2ccc(O)c3[nH]c(=O)ccc23)cc1 [Compound 160, ((S)-1-benzylpyrrolidin-3-yl)methyl (S)-2-hydroxy-2-(3-(3-(4-((((R)-2-hydroxy-2-(8-hydroxy-2-oxo-1,2-dihydroquinolin-5-yl)ethyl)amino)methyl)benzamido)propoxy)phenyl)-2-phenylacetate] | – | < 0.3
16 | O=C(NCCCOc1cccc([C@](O)(C(=O)O[C@@H]2CCN(Cc3ccccc3)C2)c2ccccc2)c1)c1ccc(CNC[C@H](O)c2ccc(O)c3[nH]c(=O)ccc23)cc1 [Compound 163, (R)-1-benzylpyrrolidin-3-yl (S)-2-hydroxy-2-(3-(3-(4-((((R)-2-hydroxy-2-(8-hydroxy-2-oxo-1,2-dihydroquinolin-5-yl)ethyl)amino)methyl)benzamido)propoxy)phenyl)-2-phenylacetate] | – | < 0.3
17 | O=C(NCCCOc1cccc([C@](O)(C(=O)O[C@H]2CCN(Cc3ccccc3)C2)c2ccccc2)c1)c1ccc(CNC[C@H](O)c2ccc(O)c3[nH]c(=O)ccc23)cc1 [Compound 164, (S)-1-benzylpyrrolidin-3-yl (S)-2-hydroxy-2-(3-(3-(4-((((R)-2-hydroxy-2-(8-hydroxy-2-oxo-1,2-dihydroquinolin-5-yl)ethyl)amino)methyl)benzamido)propoxy)phenyl)-2-phenylacetate] | – | 0.3 to 3
18 | O=C(NCCCOc1cccc([C@](O)(C(=O)OC2CN(Cc3ccccc3)C2)c2ccccc2)c1)c1ccc(CNC[C@H](O)c2ccc(O)c3[nH]c(=O)ccc23)cc1 [Compound 165, 1-benzylazetidin-3-yl (S)-2-hydroxy-2-(3-(3-(4-((((R)-2-hydroxy-2-(8-hydroxy-2-oxo-1,2-dihydroquinolin-5-yl)ethyl)amino)methyl)benzamido)propoxy)phenyl)-2-phenylacetate] | – | < 0.3
19 | O=C(NCc1ccc(COc2cccc([C@](O)(C(=O)OC3CCN(Cc4ccccc4)CC3)c3ccccc3)c2)cc1)Nc1ccc(CNC[C@H](O)c2ccc(O)c3[nH]c(=O)ccc23)cc1 [Compound 166, 1-Benzylpiperidin-4-yl (S)-2-hydroxy-2-(3-((4-((3-(4-((((R)-2-hydroxy-2-(8-hydroxy-2-oxo-1,2-dihydroquinolin-5-yl)ethyl)amino)methyl)phenyl)ureido)-methyl)benzyl)oxy)phenyl)-2-phenylacetate] | – | 0.3 to 3
20 | COc1cc(NC(=O)NCc2ccc(COc3cccc([C@](O)(C(=O)OC4CCN(Cc5ccccc5)CC4)c4ccccc4)c3)cc2)ccc1CNC[C@H](O)c1ccc(O)c2[nH]c(=O)ccc12 [Compound 167, 1-benzylpiperidin-4-yl (S)-2-hydroxy-2-(3-((4-((3-(4-((((R)-2-hydroxy-2-(8-hydroxy-2-oxo-1,2-dihydroquinolin-5-yl)ethyl)amino)methyl)-3-methoxyphenyl)ureido)methyl)benzyl)oxy)phenyl)-2-phenylacetate] | – | 0.3 to 3
21 | COc1cc(CNC[C@H](O)c2ccc(O)c3[nH]c(=O)ccc23)ccc1NC(=O)NCc1ccc(COc2cccc([C@](O)(C(=O)OC3CCN(Cc4ccccc4)CC3)c3ccccc3)c2)cc1 [Compound 168, 1-benzylpiperidin-4-yl (S)-2-hydroxy-2-(3-((4-((3-(4-((((R)-2-hydroxy-2-(8-hydroxy-2-oxo-1,2-dihydroquinolin-5-yl)ethyl)amino)methyl)-2-methoxyphenyl)ureido)methyl)benzyl)oxy)phenyl)-2-phenylacetate] | – | 0.3 to 3
